In brackets after ≈: the same amount, converted by molar mass.
Tests used:
Format in all cases: functional
Staphylococcus aureus [1] = experiment: Antibacterial activity against Staphylococcus aureus ATCC 6538 at 300 ug/ml after 24 hrs by agar well diffusion method; conditions: ATCC 6538, 24 h, read-out: DIZ
Klebsiella pneumoniae [2] = experiment: Antibacterial activity against Klebsiella pneumoniae at 500 ug/ml after 24 hrs by agar well diffusion method; conditions: read-out: DIZ
Aspergillus niger [3] = experiment: Antifungal activity against Aspergillus niger at 200 ug/ml after 72 hrs by agar well diffusion method; conditions: read-out: DIZ
Bacillus subtilis [4] = experiment: Antibacterial activity against Bacillus subtilis at 500 ug/ml after 24 hrs by agar well diffusion method; conditions: read-out: DIZ
Staphylococcus aureus [5] = experiment: Antibacterial activity against Staphylococcus aureus ATCC 6538 after 24 hrs by agar well diffusion method; conditions: ATCC 6538, 24 h
Staphylococcus aureus [6] = experiment: Antibacterial activity against Staphylococcus aureus ATCC 6538 at 100 ug/ml after 24 hrs by agar well diffusion method; conditions: ATCC 6538, 24 h, read-out: DIZ
Rhizoctonia solani [7] = experiment: Antifungal activity against Rhizoctonia solani at 50 ug/ml after 72 hrs by agar well diffusion method; conditions: read-out: DIZ
Aspergillus niger [8] = experiment: Antifungal activity against Aspergillus niger at 100 ug/ml after 72 hrs by agar well diffusion method; conditions: read-out: DIZ
Aspergillus flavus [9] = experiment: Antifungal activity against Aspergillus flavus at 300 ug/ml after 72 hrs by agar well diffusion method; conditions: read-out: DIZ
Klebsiella pneumoniae [10] = experiment: Antibacterial activity against Klebsiella pneumoniae at 200 ug/ml after 24 hrs by agar well diffusion method; conditions: read-out: DIZ
Klebsiella pneumoniae [11] = experiment: Antibacterial activity against Klebsiella pneumoniae at 300 ug/ml after 24 hrs by agar well diffusion method; conditions: read-out: DIZ
Escherichia coli [12] = experiment: Antibacterial activity against Escherichia coli ATCC 8739 at 500 ug/ml after 24 hrs by agar well diffusion method; conditions: ATCC 8739, 24 h, read-out: DIZ
Bacillus subtilis [13] = experiment: Antibacterial activity against Bacillus subtilis at 50 ug/ml after 24 hrs by agar well diffusion method; conditions: read-out: DIZ
Fusarium oxysporum [14] = experiment: Antifungal activity against Fusarium oxysporum after 72 hrs by agar well diffusion method
Rhizoctonia solani [15] = experiment: Antifungal activity against Rhizoctonia solani at 200 ug/ml after 72 hrs by agar well diffusion method; conditions: read-out: DIZ
Escherichia coli [16] = experiment: Antibacterial activity against Escherichia coli ATCC 8739 at 200 ug/ml after 24 hrs by agar well diffusion method; conditions: ATCC 8739, 24 h, read-out: DIZ
Aspergillus flavus [17] = experiment: Antifungal activity against Aspergillus flavus at 500 ug/ml after 72 hrs by agar well diffusion method; conditions: read-out: DIZ
Aspergillus niger [18] = experiment: Antifungal activity against Aspergillus niger after 72 hrs by agar well diffusion method
Klebsiella pneumoniae [19] = experiment: Antibacterial activity against Klebsiella pneumoniae at 50 ug/ml after 24 hrs by agar well diffusion method; conditions: read-out: DIZ
Rhizoctonia solani [20] = experiment: Antifungal activity against Rhizoctonia solani at 500 ug/ml after 72 hrs by agar well diffusion method; conditions: read-out: DIZ
Rhizoctonia solani [21] = experiment: Antifungal activity against Rhizoctonia solani after 72 hrs by agar well diffusion method
Bacillus subtilis [22] = experiment: Antibacterial activity against Bacillus subtilis at 200 ug/ml after 24 hrs by agar well diffusion method; conditions: read-out: DIZ
Fusarium oxysporum [23] = experiment: Antifungal activity against Fusarium oxysporum at 100 ug/ml after 72 hrs by agar well diffusion method; conditions: read-out: DIZ
Staphylococcus aureus [24] = experiment: Antibacterial activity against Staphylococcus aureus ATCC 6538 at 200 ug/ml after 24 hrs by agar well diffusion method; conditions: ATCC 6538, 24 h, read-out: DIZ
Escherichia coli [25] = experiment: Antibacterial activity against Escherichia coli ATCC 8739 at 50 ug/ml after 24 hrs by agar well diffusion method; conditions: ATCC 8739, 24 h, read-out: DIZ
Aspergillus niger [26] = experiment: Antifungal activity against Aspergillus niger at 500 ug/ml after 72 hrs by agar well diffusion method; conditions: read-out: DIZ
Staphylococcus aureus [27] = experiment: Antibacterial activity against Staphylococcus aureus ATCC 6538 at 50 ug/ml after 24 hrs by agar well diffusion method; conditions: ATCC 6538, 24 h, read-out: DIZ
Fusarium oxysporum [28] = experiment: Antifungal activity against Fusarium oxysporum at 50 ug/ml after 72 hrs by agar well diffusion method; conditions: read-out: DIZ
Fusarium oxysporum [29] = experiment: Antifungal activity against Fusarium oxysporum at 300 ug/ml after 72 hrs by agar well diffusion method; conditions: read-out: DIZ
Fusarium oxysporum [30] = experiment: Antifungal activity against Fusarium oxysporum at 500 ug/ml after 72 hrs by agar well diffusion method; conditions: read-out: DIZ
Bacillus subtilis [31] = experiment: Antibacterial activity against Bacillus subtilis at 300 ug/ml after 24 hrs by agar well diffusion method; conditions: read-out: DIZ
Rhizoctonia solani [32] = experiment: Antifungal activity against Rhizoctonia solani at 300 ug/ml after 72 hrs by agar well diffusion method; conditions: read-out: DIZ
Staphylococcus aureus [33] = experiment: Antibacterial activity against Staphylococcus aureus ATCC 6538 at 500 ug/ml after 24 hrs by agar well diffusion method; conditions: ATCC 6538, 24 h, read-out: DIZ
Aspergillus flavus [34] = experiment: Antifungal activity against Aspergillus flavus at 100 ug/ml after 72 hrs by agar well diffusion method; conditions: read-out: DIZ
Klebsiella pneumoniae [35] = experiment: Antibacterial activity against Klebsiella pneumoniae at 100 ug/ml after 24 hrs by agar well diffusion method; conditions: read-out: DIZ
Bacillus subtilis [36] = experiment: Antibacterial activity against Bacillus subtilis after 24 hrs by agar well diffusion method
Aspergillus flavus [37] = experiment: Antifungal activity against Aspergillus flavus at 50 ug/ml after 72 hrs by agar well diffusion method; conditions: read-out: DIZ
Bacillus subtilis [38] = experiment: Antibacterial activity against Bacillus subtilis at 100 ug/ml after 24 hrs by agar well diffusion method; conditions: read-out: DIZ
Escherichia coli [39] = experiment: Antibacterial activity against Escherichia coli ATCC 8739 at 300 ug/ml after 24 hrs by agar well diffusion method; conditions: ATCC 8739, 24 h, read-out: DIZ
Aspergillus flavus [40] = experiment: Antifungal activity against Aspergillus flavus at 200 ug/ml after 72 hrs by agar well diffusion method; conditions: read-out: DIZ
Aspergillus niger [41] = experiment: Antifungal activity against Aspergillus niger at 300 ug/ml after 72 hrs by agar well diffusion method; conditions: read-out: DIZ
Escherichia coli [42] = experiment: Antibacterial activity against Escherichia coli ATCC 8739 after 24 hrs by agar well diffusion method; conditions: ATCC 8739, 24 h
Escherichia coli [43] = experiment: Antibacterial activity against Escherichia coli ATCC 8739 at 100 ug/ml after 24 hrs by agar well diffusion method; conditions: ATCC 8739, 24 h, read-out: DIZ
Aspergillus flavus [44] = experiment: Antifungal activity against Aspergillus flavus after 72 hrs by agar well diffusion method
Rhizoctonia solani [45] = experiment: Antifungal activity against Rhizoctonia solani at 100 ug/ml after 72 hrs by agar well diffusion method; conditions: read-out: DIZ
Klebsiella pneumoniae [46] = experiment: Antibacterial activity against Klebsiella pneumoniae after 24 hrs by agar well diffusion method
Fusarium oxysporum [47] = experiment: Antifungal activity against Fusarium oxysporum at 200 ug/ml after 72 hrs by agar well diffusion method; conditions: read-out: DIZ
Aspergillus niger [48] = experiment: Antifungal activity against Aspergillus niger at 50 ug/ml after 72 hrs by agar well diffusion method; conditions: read-out: DIZ

COc1ccc2c(c1)c(C=C1C(=O)OC(C)(C)OC1=O)cn2C
zone of inhibition at 300 µg/mL (Staphylococcus aureus [1]): 16 mm
zone of inhibition at 500 µg/mL (Klebsiella pneumoniae [2]): 32 mm
zone of inhibition at 200 µg/mL (Aspergillus niger [3]): 14 mm
zone of inhibition at 500 µg/mL (Bacillus subtilis [4]): 22 mm
MIC (Staphylococcus aureus [5]): 25 µg/mL (≈ 79.3 µM)
zone of inhibition at 100 µg/mL (Staphylococcus aureus [6]): 10 mm
zone of inhibition at 50 µg/mL (Rhizoctonia solani [7]): 7 mm
zone of inhibition at 100 µg/mL (Aspergillus niger [8]): 10 mm
zone of inhibition at 300 µg/mL (Aspergillus flavus [9]): 15 mm
zone of inhibition at 200 µg/mL (Klebsiella pneumoniae [10]): 18 mm
zone of inhibition at 300 µg/mL (Klebsiella pneumoniae [11]): 23 mm
zone of inhibition at 500 µg/mL (Escherichia coli [12]): 31 mm
zone of inhibition at 50 µg/mL (Bacillus subtilis [13]): 4 mm
MIC (Fusarium oxysporum [14]): 35 µg/mL (≈ 111 µM)
zone of inhibition at 200 µg/mL (Rhizoctonia solani [15]): 16 mm
zone of inhibition at 200 µg/mL (Escherichia coli [16]): 15 mm
zone of inhibition at 500 µg/mL (Aspergillus flavus [17]): 23 mm
MIC (Aspergillus niger [18]): 40 µg/mL (≈ 127 µM)
zone of inhibition at 50 µg/mL (Klebsiella pneumoniae [19]): 9 mm
zone of inhibition at 500 µg/mL (Rhizoctonia solani [20]): 29 mm
MIC (Rhizoctonia solani [21]): 35 µg/mL (≈ 111 µM)
zone of inhibition at 200 µg/mL (Bacillus subtilis [22]): 11 mm
zone of inhibition at 100 µg/mL (Fusarium oxysporum [23]): 12 mm
zone of inhibition at 200 µg/mL (Staphylococcus aureus [24]): 13 mm
zone of inhibition at 50 µg/mL (Escherichia coli [25]): 8 mm
zone of inhibition at 500 µg/mL (Aspergillus niger [26]): 25 mm
zone of inhibition at 50 µg/mL (Staphylococcus aureus [27]): 6 mm
zone of inhibition at 50 µg/mL (Fusarium oxysporum [28]): 7 mm
zone of inhibition at 300 µg/mL (Fusarium oxysporum [29]): 21 mm
zone of inhibition at 500 µg/mL (Fusarium oxysporum [30]): 29 mm
zone of inhibition at 300 µg/mL (Bacillus subtilis [31]): 14 mm
zone of inhibition at 300 µg/mL (Rhizoctonia solani [32]): 21 mm
zone of inhibition at 500 µg/mL (Staphylococcus aureus [33]): 26 mm
zone of inhibition at 100 µg/mL (Aspergillus flavus [34]): 9 mm
zone of inhibition at 100 µg/mL (Klebsiella pneumoniae [35]): 14 mm
MIC (Bacillus subtilis [36]): 30 µg/mL (≈ 95.1 µM)
zone of inhibition at 50 µg/mL (Aspergillus flavus [37]): 4 mm
zone of inhibition at 100 µg/mL (Bacillus subtilis [38]): 9 mm
zone of inhibition at 300 µg/mL (Escherichia coli [39]): 20 mm
zone of inhibition at 200 µg/mL (Aspergillus flavus [40]): 12 mm
zone of inhibition at 300 µg/mL (Aspergillus niger [41]): 18 mm
MIC (Escherichia coli [42]): 15 µg/mL (≈ 47.6 µM)
zone of inhibition at 100 µg/mL (Escherichia coli [43]): 13 mm
MIC (Aspergillus flavus [44]): 40 µg/mL (≈ 127 µM)
zone of inhibition at 100 µg/mL (Rhizoctonia solani [45]): 12 mm
MIC (Klebsiella pneumoniae [46]): 15 µg/mL (≈ 47.6 µM)
zone of inhibition at 200 µg/mL (Fusarium oxysporum [47]): 16 mm
zone of inhibition at 50 µg/mL (Aspergillus niger [48]): 6 mm
